The values below come from ChEMBL document CHEMBL1201862, “PubChem BioAssay data set” (2004).

Test systems include HCT-15; HCT-116; OVCAR-8; KM12; HOP-92; NCI-H23; MDA-MB-231; K562; T47D; PC-3; SR; SF-539; SK-MEL-28; MDA-N; HOP-62; HT-29; DU-145; SNB-19; NCI/ADR-RES; NCI-H522.
Common to all, as to assay: NCI-60 cell line screen, 48 h

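Method: 48-hour compound exposure of cells in 96-well plates, five concentrations, linear interpolation of endpoints. GI50: concentration for 50% inhibition of growth.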 Activity calls are given as the source filed them. Cut-off read from the data, not from the text of the source: active = GI50 up to about 1.1 µM and inactive = higher.

Consider `CCOc1cc(NC(C)=O)ccc1C(=O)NN1C(=O)/C(=C/c2ccc(Cl)cc2)N=C1c1ccccc1`, for which the GI50 is 35.6 µM with HCT-15; 46.1 µM (inactive) with HCT-116; 34 µM (inactive) in the assay on OVCAR-8; 34.3 µM (inactive) in the assay on KM12; 33.9 µM (inactive) with HOP-92; 41.6 µM (inactive) with NCI-H23. In addition, the GI50 in the assay on MDA-MB-231 was 33.7 µM (inactive); with K562, 35.2 µM (inactive); in the assay with T47D it was 13.2 µM (inactive); in the assay with PC-3, 43.5 µM (inactive); in the assay on SR, 46 µM (inactive); in the assay with SF-539 it was 90.2 µM (inactive). Moreover, the GI50 is > 100 µM (inactive) with SK-MEL-28; 34.3 µM (inactive) with MDA-N; 44.9 µM (inactive) with HOP-62; 52.6 µM (inactive) in the assay with HT-29; 68.5 µM (inactive) in the assay on DU-145; > 100 µM (inactive) in the assay with SNB-19. The GI50 in the assay with NCI/ADR-RES was 42 µM (inactive).
With `CC(C)(C)c1ccc2c(c1)C(=O)c1ccccc1C2=O`, the GI50 in the assay on HCT-15 was 39.7 µM; with HCT-116, 76 µM (inactive); with OVCAR-8 it was 44.5 µM (inactive); in the assay on KM12, 36 µM (inactive); with HOP-92, 15.5 µM (inactive); in the assay on NCI-H23 it was 61.9 µM (inactive). Also, the GI50 is > 100 µM (inactive) in the assay with MDA-MB-231; 58.1 µM (inactive) in the assay on K562; > 100 µM (inactive) with T47D; 37.7 µM (inactive) in the assay with PC-3; > 100 µM (inactive) in the assay on SF-539; 98.2 µM (inactive) in the assay with SK-MEL-28. Further, the GI50 in the assay with MDA-N is 37.5 µM (inactive); in the assay with HOP-62, > 100 µM (inactive); in the assay on HT-29, 27.2 µM (inactive); in the assay with DU-145, > 100 µM (inactive); with SNB-19 it was > 100 µM (inactive); in the assay on NCI/ADR-RES, 32.7 µM (inactive).
In the case of `CC(C)(C)c1ccc(O)c(C(O)c2ccccn2)c1` (stereo not given), the GI50 in the assay on HCT-15 was 35.4 µM; in the assay on HCT-116, 61.4 µM (inactive); with OVCAR-8 it was > 100 µM (inactive); with KM12, 94 µM (inactive); with NCI-H23, 56.1 µM (inactive); with NCI-H522 it was 68.7 µM (inactive). Besides, the GI50 was > 100 µM (inactive) in the assay on MDA-MB-231; 42.9 µM (inactive) with K562; 34.9 µM (inactive) with T47D; 86.1 µM (inactive) in the assay with PC-3; 70.1 µM (inactive) with SR; > 100 µM (inactive) with SF-539. The GI50 in the assay on SK-MEL-28, with MDA-N, with HOP-62, with HT-29, in the assay on DU-145 and in the assay with SNB-19 was > 100 µM (inactive) in each case. For the same molecule, the GI50 in the assay on NCI/ADR-RES was 48 µM (inactive).
`CSc1[nH]nc(N)c1C(=O)Nc1ccc(Cl)cc1`: the GI50 with HCT-15 is 46.2 µM; in the assay with HCT-116, 23.6 µM (inactive); with OVCAR-8 it was 40.9 µM (inactive); in the assay with KM12, 55.6 µM (inactive); in the assay with NCI-H23, 36.6 µM (inactive); in the assay on NCI-H522, 27 µM (inactive). Moreover, the GI50 was > 100 µM (inactive) with MDA-MB-231; 51.3 µM (inactive) in the assay with K562; 58.1 µM (inactive) in the assay with T47D; 55.5 µM (inactive) in the assay with PC-3; 35.3 µM (inactive) in the assay with SR; 66.2 µM (inactive) in the assay on SF-539. Besides, the GI50 with SK-MEL-28 was > 100 µM (inactive); in the assay with MDA-N, > 100 µM (inactive); in the assay with HT-29 it was 41.5 µM (inactive); in the assay with DU-145 it was 68.5 µM (inactive); with SNB-19, 66.5 µM (inactive); with NCI/ADR-RES it was 35.2 µM (inactive).
In the case of `CCOC(=O)c1ccc(C(=O)/C(C#N)=C2\CCCN2C)[nH]1`, the GI50 in the assay with HCT-15 is greater than 100 µM; in the assay on HCT-116, > 100 µM (inactive); in the assay with OVCAR-8, > 100 µM (inactive); in the assay with KM12 it was > 100 µM (inactive); with NCI-H23 it was > 100 µM (inactive); in the assay on NCI-H522 it was > 100 µM (inactive). Besides, the GI50 in the assay on MDA-MB-231, with K562, in the assay with T47D, with PC-3, in the assay with SR and in the assay on SK-MEL-28 was > 100 µM (inactive) in each case. Also, the GI50 in the assay with MDA-N, in the assay on HOP-62, in the assay on HT-29, in the assay on DU-145, with SNB-19 and in the assay with NCI/ADR-RES was > 100 µM (inactive) in each case.
`CC(=O)Nn1cnc(C(=N)C#N)c1N`: the GI50 was greater than 100 µM with HCT-15; > 100 µM (inactive) in the assay on HCT-116; > 100 µM (inactive) in the assay with OVCAR-8; > 100 µM (inactive) in the assay on KM12; > 100 µM (inactive) in the assay on NCI-H23; > 100 µM (inactive) with NCI-H522. The GI50 with MDA-MB-231, in the assay on K562, in the assay on T47D, in the assay on PC-3, with SR and in the assay with SF-539 was > 100 µM (inactive) each time. In addition, the GI50 in the assay on SK-MEL-28, in the assay on MDA-N, with HOP-62, with HT-29, in the assay with DU-145 and in the assay with SNB-19 was > 100 µM (inactive) throughout. In addition, in the assay on NCI/ADR-RES, the GI50 was > 100 µM (inactive).
Regarding `CCOC(=O)C(Cc1ccc(N(CCCl)CCCl)cc1)NC(=O)C(Cc1ccccc1)NC(C)=O` (stereo not given), the GI50 in the assay with HCT-15 was greater than 0.378 µM; in the assay with HCT-116 it was > 0.265 µM (active); with OVCAR-8 it was > 0.322 µM (active); in the assay with KM12, > 0.338 µM (active); in the assay on HOP-92 it was 0.621 µM (active); in the assay with NCI-H23, 0.162 µM (active). Also, the GI50 is > 0.284 µM (active) with MDA-MB-231; > 0.279 µM (active) in the assay on K562; 0.157 µM (active) in the assay with T47D; > 0.254 µM (active) in the assay on PC-3; 0.153 µM (active) in the assay on SR; 0.175 µM (active) in the assay on SF-539. Moreover, the GI50 was > 0.262 µM (active) in the assay on MDA-N; 0.275 µM (active) in the assay on HOP-62; > 0.582 µM (active) in the assay with DU-145; > 0.38 µM (active) in the assay with SNB-19; > 0.33 µM (active) with NCI/ADR-RES.
Take `C=C1CN(C(=O)c2cc3cc(OC)c(OC)c(OC)c3[nH]2)c2cc([N+](=O)[O-])ccc21`: the GI50 is greater than 100 µM with HCT-15; > 100 µM (inactive) in the assay with HCT-116; > 100 µM (inactive) in the assay with OVCAR-8; > 100 µM (inactive) in the assay on KM12; 33.8 µM (inactive) in the assay with HOP-92; 65 µM (inactive) in the assay with NCI-H23. For the same molecule, the GI50 was 17.5 µM (inactive) in the assay on MDA-MB-231; > 100 µM (inactive) in the assay on K562; > 100 µM (inactive) in the assay with T47D; > 100 µM (inactive) in the assay with PC-3; > 100 µM (inactive) with SR; > 100 µM (inactive) with SF-539. Besides, the GI50 with SK-MEL-28 was > 100 µM (inactive); in the assay on MDA-N it was > 100 µM (inactive); in the assay on HT-29, > 100 µM (inactive); in the assay on DU-145 it was > 100 µM (inactive); in the assay with SNB-19, 45.8 µM (inactive); in the assay with NCI/ADR-RES, > 100 µM (inactive).
Take `S=C1CC(c2ccccc2)Sc2cc(Cl)ccc2N1` (stereo not given): the GI50 with HCT-15 was 1.32 µM; in the assay on HCT-116 it was 3.03 µM (inactive); in the assay on OVCAR-8 it was 13.2 µM (inactive); in the assay on KM12, 3.97 µM (inactive); with NCI-H23 it was 5.41 µM (inactive); in the assay on NCI-H522, 2.21 µM (inactive). For the same molecule, the GI50 in the assay with MDA-MB-231 is 7.57 µM (inactive); with K562 it was 0.64 µM (active); with T47D it was 21.6 µM (inactive); in the assay on PC-3, 1.87 µM (inactive); in the assay on SR, 3.44 µM (inactive); in the assay with SK-MEL-28, 8.73 µM (inactive). For the same molecule, the GI50 with MDA-N is 0.661 µM (active); in the assay on HOP-62, 5.61 µM (inactive); in the assay with HT-29 it was 4.4 µM (inactive); in the assay with DU-145 it was > 100 µM (inactive); in the assay with SNB-19 it was 10.8 µM (inactive); with NCI/ADR-RES it was 3.52 µM (inactive).
As to `COc1ccc(C(OCC2OC(n3ccc(NC(=O)c4ccccc4)nc3=O)CC2OP2(=S)SCCS2)(c2ccccc2)c2ccc(OC)cc2)cc1` (stereo not given), the GI50 with HCT-15 is 33.5 µM; in the assay with HCT-116, 32.9 µM (inactive); in the assay on OVCAR-8, 27.2 µM (inactive); with NCI-H23 it was 43.2 µM (inactive); with NCI-H522 it was 22.1 µM (inactive); in the assay on MDA-MB-231, 31.1 µM (inactive). For the same molecule, the GI50 in the assay on K562 is > 100 µM (inactive); with T47D it was 36.3 µM (inactive); in the assay on PC-3 it was 17.8 µM (inactive); with SR, 48.1 µM (inactive); with SK-MEL-28 it was 30 µM (inactive); in the assay on MDA-N, > 10 µM (inactive). Besides, the GI50 in the assay on HOP-62 is 20.7 µM (inactive); in the assay on HT-29, 24.7 µM (inactive); with DU-145, 32.9 µM (inactive); in the assay on SNB-19, 29.6 µM (inactive); with NCI/ADR-RES, > 10 µM (inactive).
For `C[C@@]1(OC(=O)c2cc([N+](=O)[O-])cc([N+](=O)[O-])c2)C[C@@H]2CCCC[C@@H]21`, the GI50 in the assay with HCT-15 is greater than 100 µM; in the assay on HCT-116, > 100 µM (inactive); with OVCAR-8, > 100 µM (inactive); in the assay on KM12, > 100 µM (inactive); with NCI-H23, > 100 µM (inactive); in the assay with NCI-H522, > 100 µM (inactive). The GI50 in the assay with MDA-MB-231, in the assay with K562, with T47D, in the assay with PC-3, with SR and in the assay with SF-539 was > 100 µM (inactive) in each case. For the same molecule, the GI50 in the assay with SK-MEL-28, with MDA-N, in the assay with HOP-62, in the assay with HT-29, with DU-145 and in the assay on SNB-19 was > 100 µM (inactive) in each case. Also, the GI50 with NCI/ADR-RES was > 100 µM (inactive).
